In patent publication US20260199484A1, “PROTAC DEGRADERS OF MLLT1 AND/OR MLLT3” (DARK BLUE THERAPEUTICS LTD, priority 2024, published 2026):
pIC50: −log10 of the molar value.

Assays:
MV4-11 cells = assay: MV4-11 cellular proliferative assay, Assay Format A (CellTiter-Glo, 120 h); type: cell-based; conditions: Homo sapiens, Assay format A, 120 h, read-out: IC50 (MV4-11 cellular proliferative assay)
Description: An MV4-11 proliferation assay was used to test the ability of compounds to reduce cell viability. MV4-11 cells (ATCC #CRL9591) were grown in IMDM medium (11510596, Gibco) supplemented with 10% fetal bovine serum (F7524, Gibco) and 1% Penicillin/Streptomycin (15140-122, Gibco) at 37° C. with 5% CO2. Cells were seeded in 384-well Elplasia plates (4447, Corning) at a density of 50 cells/well and treated with vehicle (DMSO) or compounds (10 serial semi-log dilutions, 30 μM as top concentration).
After 120 hours of treatment, cells were incubated for 10 min at RT with the CellTiter-Glo (CTG) reagent (G7571, Promega). Measurement of the luminescence signal was performed on a microplate reader (Ensight, PerkinElmer). CTG reagent measures the amount of ATP, which is directly proportional to the number of cells, to determine the number of viable cells in culture.
The data were analysed as follows:
[formula] • where x is the measured raw signal value of a well, (cr) is the median of the measured signal values for the Central Reference (DMSO) wells on a plate, (sr) is the median of the measured signal values for the Scale Reference (reference compound) wells on a plate.
[formula] • where the experimental set-up assumes the Hill parameters in certain ranges: S0~Central Reference (CR) from normalization (=Bottom), Sinf~Scale Reference (SR) from normalization (=Top), nHill ~1, AC50~within the measured concentration range.

MLLT1 = target: T1, MLLT1 (Homo sapiens, UniProt Q03111); assay: MLLT1 degradation assay in MV4-11 cells (JESS, 24 h); type: cell-based; design: endogenous in cells; host or cells: MV4-11 (ATCC CRL-9591); conditions: vs DMSO control
T1 sequence (Q03111 1-559): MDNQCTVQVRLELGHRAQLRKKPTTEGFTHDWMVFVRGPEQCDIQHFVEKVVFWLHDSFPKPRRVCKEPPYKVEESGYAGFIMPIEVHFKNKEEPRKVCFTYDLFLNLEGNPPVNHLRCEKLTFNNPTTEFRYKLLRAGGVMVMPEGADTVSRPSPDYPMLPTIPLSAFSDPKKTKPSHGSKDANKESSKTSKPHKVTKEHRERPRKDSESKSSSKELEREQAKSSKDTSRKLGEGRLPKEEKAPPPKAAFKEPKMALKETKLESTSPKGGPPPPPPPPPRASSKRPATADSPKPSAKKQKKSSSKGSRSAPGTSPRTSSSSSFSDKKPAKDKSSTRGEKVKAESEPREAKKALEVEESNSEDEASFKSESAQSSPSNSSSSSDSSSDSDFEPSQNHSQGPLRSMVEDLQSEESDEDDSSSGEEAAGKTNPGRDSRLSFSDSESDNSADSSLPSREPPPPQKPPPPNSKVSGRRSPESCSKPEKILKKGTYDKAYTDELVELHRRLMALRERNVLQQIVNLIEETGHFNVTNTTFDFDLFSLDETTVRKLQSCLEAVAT
Description: MLLT1 degradation efficacy of compounds was tested in an automated chemiluminescent detection system (JESS, Cat #004-650). MV4-11 (#CRL-9591, ATCC) cells were seeded at a density of 1.2 million cells/well in a non-treated 6-well cell culture plate in 2.4 mL of complete medium (IMDM+10% FBS+1× Penicillin-Streptomycin). 10 mM DMSO stocks were prepared, and cells were treated with three concentrations of test compounds viz. 1000, 100 and 10 nM at a final DMSO concentration of 0.1% and incubated for 24 h at 37° C., 5% CO2. Post incubation, cells were centrifuged, washed with HBSS and lysed in 70 μL of RIPA buffer supplemented with Protease inhibitors (sc-24948; Santa Cruz). Subsequently, protein estimation was done using BCA protein assay kit (23225; Pierce). 4 ug protein lysate (4 uL of 1 ug/uL lysate) was loaded into each well of the JESS cartridge (SM-W001; Bio-techne) and the JESS run was performed using 1:900 dilution of anti-human MLLT1 antibody (14893; Cell signaling technology) and 1:1200 dilution of anti-human GAPDH antibody (2118; Cell signaling technology) with anti-rabbit secondary detection module (DM-001; Bio-Techne). Post run, data were analysed using “Compass for SW” software for chemiluminescent detection. The peak area for each band was used for the calculation of MLLT1 degradation with respect to DMSO control. Data is shown as “MLLT1% degradation”. • Category A: A≥75% degradation • Category B: 50%≤B<75% degradation • Category C: 25%≤C<50% degradation • Category D: D<25% degradation

Row | SMILES | pIC50 (MV4-11 cells) | MLLT1% Degradation @ 0.01 μM (MLLT1) | MLLT1% Degradation @ 0.1 μM (MLLT1) | MLLT1% Degradation @ 1 μM (MLLT1)
1 | Cc1nn(CCCNc2cccc3c2C(=O)N(C2CCC(=O)NC2=O)C3=O)c2cc(C(=O)Nc3cc4[nH]c([C@H]5CCCN5C)cc4cn3)ccc12 (stereo partly drawn) [Example 13, 1-(3-((2-(2,6-dioxopiperidin-3-yl)-1,3-dioxoisoindolin-4-yl)amino)propyl)-3-methyl-N-(2-((R)-1-methylpyrrolidin-2-yl)-1H-pyrrolo[3,2-c]pyridin-6-yl)-1H-indazole-6-carboxamide] | > 7.00 |  |  | 
2 | Cc1nn(CCCCCCCCNc2ccc3c(c2)C(=O)N(C2CCC(=O)NC2=O)C3=O)c2cc(C(=O)Nc3cc4[nH]c([C@H]5CCCN5C)cc4cn3)ccc12 (stereo partly drawn) [Example 14, 1-(8-{[2-(2,6-dioxopiperidin-3-yl)-1,3-dioxoisoindol-5-yl]amino}octyl)-3-methyl-N-{2-[(2R)-1-methylpyrrolidin-2-yl]-1H-pyrrolo[3,2-c]pyridin-6-yl}indazole-6-carboxamide] | > 7.00 |  |  | 
3 | Cc1nn(CCCCCCCCNc2ccc3c(c2)C(=O)N(C2CCC(=O)NC2=O)C3=O)c2cc(C(=O)Nc3cc4[nH]c([C@@H]5CCCN5C)cc4cn3)ccc12 (stereo partly drawn) [Example 15, 1-(8-{[2-(2,6-dioxopiperidin-3-yl)-1,3-dioxoisoindol-5-yl]amino}octyl)-3-methyl-N-{2-[(2S)-1-methylpyrrolidin-2-yl]-1H-pyrrolo[3,2-c]pyridin-6-yl}indazole-6-carboxamide] | > 7.00 | D (Category D: D<25% degradation) | A (Category A: A≥75% degradation) | A (Category A: A≥75% degradation)
4 | Cc1nn(CCCCCCCCNc2cccc3c2CN(C2CCC(=O)NC2=O)C3=O)c2cc(C(=O)Nc3cc4[nH]c([C@H]5CCCN5C)cc4cn3)ccc12 (stereo partly drawn) [Example 16, 1-(8-{[2-(2,6-dioxopiperidin-3-yl)-1-oxo-3H-isoindol-4-yl]amino}octyl)-3-methyl-N-{2-[(2R)-1-methylpyrrolidin-2-yl]-1H-pyrrolo[3,2-c]pyridin-6-yl}indazole-6-carboxamide] | > 7.00 | A (Category A: A≥75% degradation) | A (Category A: A≥75% degradation) | A (Category A: A≥75% degradation)
5 | Cc1nn(CCCCCCCCNc2cccc3c2CN(C2CCC(=O)NC2=O)C3=O)c2cc(C(=O)Nc3cc4[nH]c([C@@H]5CCCN5C)cc4cn3)ccc12 (stereo partly drawn) [Example 17, 1-(8-{[2-(2,6-dioxopiperidin-3-yl)-1-oxo-3H-isoindol-4-yl]amino}octyl)-3-methyl-N-{2-[(2S)-1-methylpyrrolidin-2-yl]-1H-pyrrolo[3,2-c]pyridin-6-yl}indazole-6-carboxamide] | > 7.00 |  |  | 
6 | Cc1nn(CCCCN2CCN(c3ccc4c(c3)C(=O)N(C3CCC(=O)NC3=O)C4=O)CC2)c2cc(C(=O)Nc3cc4[nH]c([C@H]5CCCN5C)cc4cn3)ccc12 (stereo partly drawn) [Example 19, 1-(4-{4-[2-(2,6-dioxopiperidin-3-yl)-1,3-dioxoisoindol-5-yl]piperazin-1-yl}butyl)-3-methyl-N-{2-[(2R)-1-methylpyrrolidin-2-yl]-1H-pyrrolo[3,2-c]pyridin-6-yl}indazole-6-carboxamide] | > 7.00 |  |  | 

Continued, values first:

Row | pIC50 (MV4-11 cells) | MLLT1% Degradation @ 0.01 μM (MLLT1) | MLLT1% Degradation @ 0.1 μM (MLLT1) | MLLT1% Degradation @ 1 μM (MLLT1) | SMILES
7 | > 7.00 | B (Category B: 50%≤B<75% degradation) | A (Category A: A≥75% degradation) | A (Category A: A≥75% degradation) | Cc1nn(CCCCCCCCNc2cccc3c2C(=O)N(C2CCC(=O)NC2=O)C3=O)c2cc(C(=O)Nc3cc4[nH]c(C5CCCN5C)cc4cn3)ccc12 (racemic) [Example 2, rac-1-(8-{[2-(2,6-dioxopiperidin-3-yl)-1,3-dioxoisoindol-4-yl]amino}octyl)-3-methyl-N-[2-(1-methylpyrrolidin-2-yl)-1H-pyrrolo[3,2-c]pyridin-6-yl]indazole-6-carboxamide]
8 | > 7.00 | B (Category B: 50%≤B<75% degradation) | A (Category A: A≥75% degradation) | A (Category A: A≥75% degradation) | Cc1nn(CCCCCCCCNc2cccc3c2C(=O)N(C2CCC(=O)NC2=O)C3=O)c2cc(C(=O)Nc3cc4[nH]c([C@H]5CCCN5C)cc4cn3)ccc12 (stereo partly drawn) [Example 3, 1-(8-{[2-(2,6-dioxopiperidin-3-yl)-1,3-dioxoisoindol-4-yl]amino}octyl)-3-methyl-N-{2-[(2R)-1-methylpyrrolidin-2-yl]-1H-pyrrolo[3,2-c]pyridin-6-yl}indazole-6-carboxamide]
9 | > 7.00 |  |  |  | Cc1nn(C2CCN(CCCNc3cccc4c3C(=O)N(C3CCC(=O)NC3=O)C4=O)CC2)c2cc(C(=O)Nc3cc4[nH]c([C@H]5CCCN5C)cc4cn3)ccc12 (stereo partly drawn) [Example 7, 1-[1-(3-{[2-(2,6-dioxopiperidin-3-yl)-1,3-dioxoisoindol-4-yl]amino}propyl)piperidin-4-yl]-3-methyl-N-{2-[(2R)-1-methylpyrrolidin-2-yl]-1H-pyrrolo[3,2-c]pyridin-6-yl}indazole-6-carboxamide]
10 | > 7.00 |  |  |  | Cc1nn(CCCCCCCCOc2ccc3c(c2)C(=O)N(C2CCC(=O)NC2=O)C3=O)c2cc(C(=O)Nc3cc4[nH]c([C@H]5CCCN5C)cc4cn3)ccc12 (stereo partly drawn) [Example 8, 1-(8-{[2-(2,6-dioxopiperidin-3-yl)-1,3-dioxoisoindol-5-yl]oxy}octyl)-3-methyl-N-{2-[(2R)-1-methylpyrrolidin-2-yl]-1H-pyrrolo[3,2-c]pyridin-6-yl}indazole-6-carboxamide]
11 | > 7.00 | B (Category B: 50%≤B<75% degradation) | B (Category B: 50%≤B<75% degradation) | B (Category B: 50%≤B<75% degradation) | Cc1nn(CCCCCC#Cc2cccc3c2n(C)c(=O)n3C2CCC(=O)NC2=O)c2cc(C(=O)Nc3cc4[nH]c([C@H]5CCCN5C)cc4cn3)ccc12 (stereo partly drawn) [Example 11, 1-{7-[1-(2,6-dioxopiperidin-3-yl)-3-methyl-2-oxo-1,3-benzodiazol-4-yl]hept-6-yn-1-yl}-3-methyl-N-{2-[(2R)-1-methylpyrrolidin-2-yl]-1H-pyrrolo[3,2-c]pyridin-6-yl}indazole-6-carboxamide]
12 | > 7.00 |  |  |  | Cc1nn(CCCCCCCCOc2cccc3c2C(=O)N(C2CCC(=O)NC2=O)C3=O)c2cc(C(=O)Nc3cc4[nH]c([C@H]5CCCN5C)cc4cn3)ccc12 (stereo partly drawn) [Example 12, 1-(8-((2-(2,6-dioxopiperidin-3-yl)-1,3-dioxoisoindolin-4-yl)oxy)octyl)-3-methyl-N-(2-((R)-1-methylpyrrolidin-2-yl)-1H-pyrrolo[3,2-c]pyridin-6-yl)-1H-indazole-6-carboxamide]
